Laboratory results published in paper PMC9542723, “Correlation between the drug concentration of polymyxin B and polymyxin B‐associated acute kidney injury in critically ill patients: A prospective study” (Pharmacology Research & Perspectives, 2022).
Positions of bridges follow the written chain, without caps; N, C: chain ends. Non-standard residues stand in square brackets, D forms with d. Residues, ends and D or L forms follow the SMILES beside them. *: point of attachment. X1 = CC[C@H](C)CCCCC(=O)*; Dab = NCC[C@H](N)C(=O)O

What was measured:
[1] = Steady-state serum concentrations of PB (PB1 + PB2) by UHPLC-MS/MS in critically ill patients; assay type: in vivo, human; conditions: median (IQR); for Estimated AUC0–24: double the AUC0-12 by linear trapezoidal approximation from three samples
Experimental: (§1) Inclusion criteria included age ≥ 18 years and intravenous administration of PB for more than 3 days. Exclusion criteria included PB administration of a daily dose of 1.5–2.5 mg/kg <3 days, underlying chronic renal insufficiency or existing AKI, or renal replacement therapy already performed. The loading dose and maintenance dose of PB for each patient depended on the doctors' decisions at a daily dose of 1.5–2.5 mg/kg in evenly two doses. PB was administered as an intermittent infusion over approximately 1 h. Patients were divided into an AKI group and a non‐AKI group according to whether they developed new AKI after PB application according to Kidney Disease Improving Global Outcomes (KDIGO) diagnostic criteria.[20] An increase in serum creatinine (Scr) to 50% of the base value within 7 days or an increase in Scr of more than 26.5 μmol/L within 2 days or oliguria is diagnosed as AKI according to KDIGO's diagnostic criteria.
The estimated area under the plasma concentration–time curve from 0 to 24 h (AUC0–24) was the main PK variable for PB. From each patient, three blood samples were taken after at least […] doses of PB: blood sample A (C max) was collected within 30 min after the end of intravenous infusion of PB for the peak concentration, blood sample B (C 1/2) was a mid‐dose blood sample taken 50% of the way through a dosing interval, and blood sample C (C min) was a pre‐dose concentration taken at the end of a dosing interval (within 30 min of the next dose, see Figure 1). The serum was separated and stored at −70°C until assay.
The PB1 and PB2 serum concentrations were measured using a validated ultrahigh performance liquid chromatography–tandem mass spectrometry assay method.[21] The C max, C 1/2, and C min of steady‐state (after at least 5 doses) PB1 and PB2 components were determined according to the above method: Cmax=Cmax−PB1+Cmax−PB2, C1/2=C1/2−PB1+C1/2−PB2, Cmin=Cmin−PB1+Cmin−PB2,
The estimated area under the concentration–time curve from 0 to 12 h (AUC0–12) was calculated using the linear trapezoidal approximation[22] and the estimated AUC0–24 from 0 to 24 h (AUC0–24) was calculated as double the AUC0–12, [23] assuming a steady state (after at least 4–5 doses) when PB was administered every 12 h.

critically ill patients [2] = test: Occurrence of PB-associated acute kidney injury (KDIGO criteria) after intravenous PB; assay type: in vivo, human; conditions: critically ill patients without basic renal insufficiency, 26/52, PB i.v. more than 3 days
Experimental: as §1

critically ill patients [3] = conditions: previous clinical studies; cited from earlier work
Experimental: Estimated AUC0–24 is a predictor for PB‐AKI, and an estimated AUC0–24 ≥ 97.72 mg·h/L was identified as a significant breakpoint for PB‐AKI.

critically ill patients [4] = test: ROC curve analysis of PB PK parameters for predicting PB-AKI; set-up: species or system human; conditions: best cut point by maximised index
Text: Data are reported as categorical variables or numerical variables. Continuous normally distributed numerical variables are expressed as the means ± standard deviations, and continuous non‐normally distributed variables are expressed as the median (interquartile range). ANOVA test was used to compare the continuous normally distributed variables, Kruskal–Wallis rank sum test was used to compare the continuous non‐normally distributed variables, and Chi‐square test was used to compare the rates. The sensitivity and specificity of C 1/2, C min, and estimated AUC0–24 for the development of AKI were determined using ROC curve analysis. AKI occurrence as the outcome, to maximize the Jorden index to find the best entry point. Statistical significance was defined as p < .05. SPSS version 22.0 (SPSS Inc.) was used for all statistical calculations.

[5] = test system: human renal tubular cells; conditions: cited from earlier work
Text: In recent years, PB‐AKI has been increasingly reported, which is a problem that should not be ignored.[13], [17], [28] Studies have shown that the main features of PB‐AKI include acute renal tubular injury and reduced Ccr.[25] In a mouse study, PB distribution in renal tissue after intravenous administration was detected using PB‐specific monoclonal antibody immunostaining and was mainly concentrated in the renal cortex, especially in the proximal tubu ...

CC[C@H](C)CCCCC(=O)N[C@@H](CCN)C(=O)N[C@H](C(=O)N[C@@H](CCN)C(=O)N[C@H]1CCNC(=O)[C@H]([C@@H](C)O)NC(=O)[C@H](CCN)NC(=O)[C@H](CCN)NC(=O)[C@H](CC(C)C)NC(=O)[C@@H](Cc2ccccc2)NC(=O)[C@H](CCN)NC1=O)[C@@H](C)O [PB, polymyxin B] (X1-[Dab]T[Dab][Dab][Dab][dF]L[Dab][Dab]T; lactam 4-C)
Estimated AUC0–24 ([1]; AKI group (n = 26)): 102.37 (86.18–120.61) mg·h/L
level at 6 h ([1]; human, iv, AKI group (n = 26), 50% of the way through a 12 h dosing interval, serum, sum PB1+PB2, UHPLC-MS/MS, read-out: C 1/2, middle serum concentration through a dosing interval): 3940 ng/mL
Cmax ([1]; human, iv, AKI group (n = 26), within 30 min after end of 1 h i.v. infusion, serum, sum PB1+PB2, UHPLC-MS/MS, read-out: C max, peak serum concentration of PB): 6800 ng/mL
Estimated AUC0–24 ([1]; non-AKI group (n = 26)): 85.5 (69.16–97.55) mg·h/L
Estimated AUC0–24 ([1]; total patients (N = 52)): 92.07 (77.11–118.02) mg·h/L
C max, peak serum concentration of PB ([1]; total patients (N = 52), within 30 min after end of 1 h i.v. infusion, daily dose 1.5-2.5 mg/kg in two doses, serum, sum PB1+PB2, UHPLC-MS/MS): 6.69 (5.56–8.36) mg/L
Incidence of AKI caused by intravenous PB (critically ill patients [2]): 50%
Estimated AUC0–24 that predicts nephrotoxicity of PB treatment (critically ill patients [3]): > 100000 ng·h/mL
Cutoff value for estimated AUC0–24 predicting PB-AKI (critically ill patients [4]): 97720 ng·h/mL
Cutoff value for C 1/2 predicting PB-AKI (critically ill patients [4]; p = .003): 3.375 mg/L

polymyxin
Concentration of polymyxin in renal tubular cells relative to extracellular [5]: 4760 times
